The text below walks through data of patent US20020098520A1, “Cell tests and diagnostic index for alzheimer's disease” (priority 1993, published 2002).

One assay deals with 113 pS K^+ channel. The assay can be described thus: Patch-clamp, cell-free patches: channel sensitivity to blockers. Type of assay: cell-based, human. The settings on record: 50 mM Ba^2+, inside-out patches, n=4. The procedure:
(§1) Patch-clamp experiments were performed at room temperature (21-23° C.), following standard procedures set forth in Sakmann, B. and Neher, E. (1983) Single Channels Recordings (Plenum New York) and Kukuljan, M., et al. (1991) J. Membrane Biol. 119:187. Before recordings, […] culture medium was replaced with the following solution: 150 mM NaCl, 5 mM KCl, 2 mM CaCl2, 1 MM MgCl2, 10 mM HEPES […] pH=7.4. Pipettes were made from Blue Tip capillary tubes (I.D. 1.1-1.2 mm) using a BB-CH Mecanex puller, and then filled with a high potassium solution of 140 mM KCl, 2 mM CaCl2, 1 mM MgCl2, 10 mM HEPES (NaOH), pH=7.4. Pipette resistances were approximately 6 MΩ. Records were obtained using an Axopatch-1C amplifier (dc-10 kHz), stored on tape (Toshiba PCM-video recorder), and later transferred to a personal computer using an Axolab interface. Only recordings lasting for at least 3 minutes were considered for final analysis. The pClamp suite of programs was used for single-channel data acquisition and analysis. Amplifier, interface and software were obtained from Axon Instruments (Foster City, Calif.).
On the technique in general: The patch-clamp technique gives a direct electrical read-out from membranes.

The subject of a further assay is 166 pS K^+ channel. The assay is described as above. In kind it is cell-based, human. The settings on record: 50 mM Ba^2+, inside-out patches, n=4. The procedure: as §1
Assay [1] has as its system human skin fibroblasts (AD, AC, YC). Type of assay: cell-based.
In a further assay the test system is 113 pS K+ channel. The conditions noted are these: low β-amyloid concentration (10 nM), cited from earlier work.
The subject of another assay is Cp20. Description: Cp20 immunoblot of AC fibroblasts treated with β-amyloid. Type of assay: cell-based, human. The conditions noted are these: 10 nM β-amyloid for 48 h, 9 AC cell lines. The procedure: (§2) Cell lines and procedures for cell culture. Human skin fibroblasts were grown to confluence in 75 cc growing surface culture flasks (Falcon) containing Dulbecco's modified Eagle's medium (DMEM, Gibco), supplemented with 10% fetal calf serum (Gibco). […]
Protein assay, immunoblotting, and total protein analyses procedures. Protein concentration was determined following an established dye-binding protein assay (R. D. Lane et al. J. Immunol Methods 92:261 (1986) for all homogenates. For immunoblots, a SDS-PAGE 4-20% gradient, […] gel was used (Novex, San Diego, Calif.). Sample volume was adjusted to give a protein concentration of 1 μg/μl. Novex sample buffer (16 μl) was added to 16 μl of sample, the solution was heated to 85° C. for 2 min, loaded into the gel and subjected to […] for ≈1.5 h. The Rainbow™ molecular weight standard (Amersham) was also loaded. The resolved proteins were electrophoretically transferred (51.2 mA for 2 h) to a unmodified 8 by 8 cm nitrocellulose paper (Pierce). […]
For orientation: A western blot detects proteins with antibodies after separation by electrophoresis.

Assay [2] concerns proteins in the 20 kD region. Description: Total protein analysis (SDS-PAGE, Coomassie blue) of β-amyloid treated AC fibroblasts. In kind it is cell-based, human. The conditions noted are these: 10 nM β-amyloid for 48 h, AC cell lines. Here is the method:
as §2
Protein assay, immunoblotting, and total protein analyses procedures. Protein concentration was determined following an established dye-binding protein assay (R. D. Lane et al. J. Immunol Methods 92:261 (1986) for all homogenates. For immunoblots, a SDS-PAGE 4-20% gradient, […] gel was used (Novex, San Diego, Calif.). Sample volume was adjusted to give a protein concentration of 1 μg/μl. Novex sample buffer (16 μl) was added to 16 μl of sample, the solution was heated to 85° C. for 2 min, loaded into the gel and subjected to […] for ≈1.5 h. The Rainbow™ molecular weight standard (Amersham) was also loaded. The resolved proteins were electrophoretically transferred (51.2 mA for 2 h) to a unmodified 8 by 8 cm nitrocellulose paper (Pierce). […] Immunoblots were then digitized on a flat bed scanner and analyzed with imaging software written in the laboratory (TN Image by T. J. Nelson) for quantitative analysis. […] MW was determined by comparison with Mark12™ standards (Novex). […]

Entries after “also recorded” stand apart in the source; their conditions may differ.

On to `[Ba+2]` [Ba^2+], for which the “sensitivity of the 113 pS channel to Ba^2+” value with 113 pS K^+ channel is given as “sensitive”. Moreover, in the assay on 166 pS K^+ channel, the “sensitivity of the 166 pS channel to Ba^2+” value was “sensitive”.

For `[Cl][Cd][Cl]` [CdCl2], in assay [1], the “response to high potassium when agent is added before stimulation” value (“response to high potassium” for short) is listed as “No responses were observed”.

In the case of `[Cl-].[Cl-].[Co+2]` [CoCl2], the “response to high potassium” value in assay [1] was “No responses were observed”.

Regarding `O=C(O)CN(CCOCCOCCN(CC(=O)O)CC(=O)O)CC(=O)O` [EGTA], the “response to high potassium” value in assay [1] was “No responses were observed”.

On to `[Cl-].[K+]` [KCl, potassium chloride], for which the “return of [Ca^2+]i to basal levels” value in assay [1] (50 mM KCl) came to 100 s. For the same compound, the “[Ca^2+]i elevation” value in assay [1] (50 mM KCl, all three groups (AD, AC, YC)) is “at least 100%”.

As for `[Cl][La]([Cl])[Cl]` [LaCl3], the “response to high potassium” value in assay [1] was “No responses were observed”.

Take `[Cl][Ni][Cl]` [NiCl2]: the “response to high potassium” value in assay [1] is given as “No responses were observed”.

As to β-amyloid 1-40 peptide, the “effect on the 113 pS K+ channel / K+ function” value in the assay with 113 pS K+ channel (control cells) is “specific AD-like effects; also recorded: induces an AD-like K+ dysfunction”. In addition, in the assay with 113 pS K+ channel, the “effect on basal levels of intracellular Ca^2+” value is given as “without altering basal levels”. For the same compound, in the assay with Cp20, the “Cp20 level in treated cells compared to non-treated counterparts” value is “significantly reduced; also recorded: reduction of Cp20; also recorded: induced the Alzheimer's disease phenotypes for Cp20”. For the same compound, the “effect on total protein profile / proteins in the 20 kD region” value in assay [2] is “not a generalized effect on all proteins in the 20 kD region; also recorded: revealed no differences”.
